From PubChem BioAssay AID1963428 (Molecular Pharmacology Branch, DTP, NCI, 2024)
pIC50: −log10 of the molar value.

Tested on: 171881-019-R-J1-PDC complex spheroid growth, % test/control
Experiment: Anticancer human tumor 171881-019-R-J1-PDC patient-derived invasive breast carcinoma cell line growth inhibition [Asc]
Conditions: for pIC50: curve of first compound; for viability, T/C: stronger effect = lower value
Description: Multicellular complex tumor spheroid response to apoptosis pathway targeting inhibitors Alrizomadlin, Pelcitoclax, and Dasminapant in combination with a variety of drugs and investigational agents in selected tumor cell lines
The MDM2 inhibitor alrizomadlin, the Bcl-2/Bcl-xL inhibitor pelcitoclax, and the IAPs inhibitor dasminapant were evaluated both individually and in combination with standard of care and investigational anticancer small molecules within a complex spheroid model of solid tumors. . Complex spheroids include a stromal component modeled by human endothelial cells (HUVEC) and fibroblasts modeled by human mesenchymal stem cells (MSCs). The concentration ranges selected for each drug and investigational agent were based upon clinically achievable concentrations if the clinical Cmax of the agent was known.
Compounds. The drugs and investigational agents: alrizomadlin (APG-115; NSC831270), pelcitoclax (APG-1252; NSC835773), dasminapant (APG-1387;NSC834197), TAK-243 (NSC785004), copanlisib (NSC809693), olaparib (NSC753686), talazoparib (NSC767125), cobimetinib (NSC 768068), eltanexor (KPT-8602, NSC 794443), abemaciclib (NSC 768073), sotorasib (NSC818433), adagrasib (NSC 831453), MRTX-1133 (NSC 836407), Iadademestat (ORY1001, NSC 806812), and RMC-4630 (NSC839698), were obtained from the NCI Developmental Therapeutics Program Chemical Repository. The FDA-approved anticancer drug set is available from the Developmental Therapeutics Program at https://dtp.cancer.gov/organization/dscb/obtaining/available plates.htm. […] The stock solutions were prepared in dimethyl sulfoxide (DMSO, Sigma-Aldrich, St. Louis, MO, cat. D2650) at 800-fold the tested concentration and stored at -70 degrees C prior to their use. All drugs and investigational agents were tested over a range starting from a high concentration at or near the clinical Cmax and decreasing in half-log increments. If the clinical Cmax for an agent had not been determined, the highest concentration tested was 10 microM.
The patient-derived cancer (PDC) cell lines include five colon adenocarcinomas: 186277-243-T-J2-PDC, 616215-338-R-J1-PDC, 439559-082-T-J2-PDC, 463943-066-T-J2-PDC, and 519858-162-T-J1-PDC; three pancreatic carcinomas: 323965-272-R-J2-PDC, 521955-158-R6-J3-PDC, and 521955-158-R2-J5-PDC; two uterine sarcomas: 327498-152-R-J2-PDC and 993429-296-R-J1-PDC; two rhabdomyosarcomas: 755483-174-R-J1-PDC and 772245-204-R-J1-PDC; two soft tissue sarcomas: 126254-015-R-J1-PDC and 494315-158-R-J1-PDC; two malignant fibrous histiocytomas: 317291-083-R-J1-PDC and 596521-263-R-J1-PDC; two breast carcinomas: 171881-019-R-J1-PDC and 885512-296-R-J2-PDC; and one ovarian carcinoma: 6556581-035-R-J-PDC were obtained from the NCI PDMR, (https://pdmr.cancer.gov). The established cell lines HSSY-2 synovial sarcoma (RRID:CVCL 8719), SYO-1 synovial sarcoma (RRID:CVCL_7146), MPNST malignant peripheral neural sheath tumor were obtained from the Sloan Kettering Institute. The following established cell lines were purchased from the American Type Culture Collection (ATCC, Manassas, VA), Sor the received from the NCI repository:, PANC-1 pancreatic carcinoma (CRL-1469, RRID:CVCL_0480), OVCAR-5 ovarian carcinoma (RRID:CVCL_1628), OVCAR-8 ovarian carcinoma (RRID:CVCL_1629), , MCF-7 breast carcinoma (CRL-12584, RRID:CVCL_0031), MDA-MB-231 breast carcinoma (CRL-12532, RRID:CVCL_0062), NCI-H1876 small cell lung carcinoma (CRL-5902, RRID:CVCL_1503), NCI-H510A small cell lung carcinoma (HTB-184, RRID:CVCL_1565), NCI-H1417 (CRL-5869, RRID:CVCL_1469), and NCI-H196 small cell lung carcinoma (CRL-5823, RRID:CVCL_1509). Dr. Peter Houghton (Greehey Children's Cancer Research Institute, University of Texas Health Science Center, San Antonio, TX) provided Rh-18 rhabdomyosarcoma (RRID:CVCL_1659). Pooled donor human umbilical vein endothelial cells (HUVEC, Lonza, cat. CC-2519) and human mesenchymal stem cells (hMSC, Lonza, cat. PT-2501) were purchased from Lonza (Walkersville, MD).
Cell Culture. […]
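Wherever viability, T/C is given: spheroids exposed to compounds for 7 days.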

Structure (SMILES): C=C(F)C(=O)N1CCN(c2nc(OCC3CCCN3C)nc3c2CCN(c2cccc4cccc(Cl)c24)C3)CC1CC#N (stereo not given) + CCN1C(C(=O)NC23CCC(C(=O)O)(CC2)CC3)C(c2cccc(Cl)c2F)C2(C(=O)Nc3cc(Cl)ccc32)C12CCCCC2
- pIC50 (second compound 0.03 µM): 5.22
- pIC50 (second compound 0.0949 µM): 5.23
- pIC50 (second compound 0.3 µM): 5.21
- pIC50 (second compound 0.949 µM): 5.24
- pIC50 (second compound 3 µM): 5.22
- viability, T/C (second compound 0.03 µM, first compound 0.0316 µM): 107%
- viability, T/C (second compound 0.03 µM, first compound 0.1 µM): 105%
- viability, T/C (second compound 0.03 µM, first compound 0.316 µM): 104%
- viability, T/C (second compound 0.03 µM, first compound 1 µM): 110%
- viability, T/C (second compound 0.03 µM, first compound 3.16 µM): 122%
- viability, T/C (second compound 0.03 µM, first compound 10 µM): 1.23%
- viability, T/C (second compound 0.0949 µM, first compound 0.0316 µM): 99.9%
- viability, T/C (second compound 0.0949 µM, first compound 0.1 µM): 107%
- viability, T/C (second compound 0.0949 µM, first compound 0.316 µM): 112%
- viability, T/C (second compound 0.0949 µM, first compound 1 µM): 108%
- viability, T/C (second compound 0.0949 µM, first compound 3.16 µM): 110%
- viability, T/C (second compound 0.0949 µM, first compound 10 µM): 0.23%
- viability, T/C (second compound 0.3 µM, first compound 0.0316 µM): 117%
- viability, T/C (second compound 0.3 µM, first compound 0.1 µM): 105%
- viability, T/C (second compound 0.3 µM, first compound 0.316 µM): 112%
- viability, T/C (second compound 0.3 µM, first compound 1 µM): 120%
- viability, T/C (second compound 0.3 µM, first compound 3.16 µM): 141%
- viability, T/C (second compound 0.3 µM, first compound 10 µM): 0.58%
- viability, T/C (second compound 0.949 µM, first compound 0.0316 µM): 118%
- viability, T/C (second compound 0.949 µM, first compound 0.1 µM): 120%
- viability, T/C (second compound 0.949 µM, first compound 0.316 µM): 108%
- viability, T/C (second compound 0.949 µM, first compound 1 µM): 111%
- viability, T/C (second compound 0.949 µM, first compound 3.16 µM): 104%
- viability, T/C (second compound 0.949 µM, first compound 10 µM): 0.88%
- viability, T/C (second compound 3 µM, first compound 0.0316 µM): 108%
- viability, T/C (second compound 3 µM, first compound 0.1 µM): 103%
- viability, T/C (second compound 3 µM, first compound 0.316 µM): 107%
- viability, T/C (second compound 3 µM, first compound 1 µM): 113%
- viability, T/C (second compound 3 µM, first compound 3.16 µM): 128%
- viability, T/C (second compound 3 µM, first compound 10 µM): 0.37%

Structure (SMILES): NC1CCC(NC2CC2c2ccccc2)CC1 (stereo not given) + Cc1c(S(C)(=O)=O)c(-c2cc(F)cc(N3CCN(c4ccc(NS(=O)(=O)c5ccc(NC(CCN6CCC(C(=O)OCCCP(=O)(O)O)CC6)CSc6ccccc6)c(S(=O)(=O)C(F)(F)F)c5)cc4)CC3)c2)c(-c2ccc(Cl)cc2)n1C(C)C
- pIC50 (second compound 0.1 µM): < 7.00
- pIC50 (second compound 0.316 µM): < 7.00
- pIC50 (second compound 1 µM): < 7.00
- pIC50 (second compound 3.16 µM): < 7.00
- pIC50 (second compound 10 µM): < 7.00
- viability, T/C (second compound 0.1 µM, first compound 0.000316 µM): 85.6%
- viability, T/C (second compound 0.1 µM, first compound 0.001 µM): 83%
- viability, T/C (second compound 0.1 µM, first compound 0.00316 µM): 85.6%
- viability, T/C (second compound 0.1 µM, first compound 0.01 µM): 81%
- viability, T/C (second compound 0.1 µM, first compound 0.0316 µM): 88.7%
- viability, T/C (second compound 0.1 µM, first compound 0.1 µM): 91.8%
- viability, T/C (second compound 0.316 µM, first compound 0.000316 µM): 99.9%
- viability, T/C (second compound 0.316 µM, first compound 0.001 µM): 107%
- viability, T/C (second compound 0.316 µM, first compound 0.00316 µM): 90.5%
- viability, T/C (second compound 0.316 µM, first compound 0.01 µM): 88.2%
- viability, T/C (second compound 0.316 µM, first compound 0.0316 µM): 96%
- viability, T/C (second compound 0.316 µM, first compound 0.1 µM): 84.1%
- viability, T/C (second compound 1 µM, first compound 0.000316 µM): 97.6%
- viability, T/C (second compound 1 µM, first compound 0.001 µM): 101%
- viability, T/C (second compound 1 µM, first compound 0.00316 µM): 91.5%
- viability, T/C (second compound 1 µM, first compound 0.01 µM): 82.6%
- viability, T/C (second compound 1 µM, first compound 0.0316 µM): 84%
- viability, T/C (second compound 1 µM, first compound 0.1 µM): 92.4%
- viability, T/C (second compound 3.16 µM, first compound 0.000316 µM): 134%
- viability, T/C (second compound 3.16 µM, first compound 0.001 µM): 99.3%
- viability, T/C (second compound 3.16 µM, first compound 0.00316 µM): 93%
- viability, T/C (second compound 3.16 µM, first compound 0.01 µM): 88.3%
- viability, T/C (second compound 3.16 µM, first compound 0.0316 µM): 88.1%
- viability, T/C (second compound 3.16 µM, first compound 0.1 µM): 104%
- viability, T/C (second compound 10 µM, first compound 0.000316 µM): 154%
- viability, T/C (second compound 10 µM, first compound 0.001 µM): 127%
- viability, T/C (second compound 10 µM, first compound 0.00316 µM): 111%
- viability, T/C (second compound 10 µM, first compound 0.01 µM): 115%
- viability, T/C (second compound 10 µM, first compound 0.0316 µM): 121%
- viability, T/C (second compound 10 µM, first compound 0.1 µM): 92.3%
